Test results as given in paper PMC11081458 (Nature structural & molecular biology, 2024).

Legend:
BIg–RbCBM74–BIg [1] = molecular target: T1, BIg–RbCBM74–BIg (Ruminococcus bromii, UniProt A0ABF7PL48); assay: Isothermal titration calorimetry with BIg–RbCBM74–BIg
RbCBM26 = RbCBM26 (Ruminococcus bromii, UniProt A0ABF7PL48); assay: Isothermal titration calorimetry with RbCBM26; conditions: for binding by ITC (in words) / n (binding stoichiometry): ITC; for n (binding stoichiometry): fitted n
Sas6T = Sas6T (Ruminococcus bromii, UniProt A0ABF7PL48); assay: Isothermal titration calorimetry with Sas6T; conditions: for n (binding stoichiometry) / binding by ITC (in words): ITC; for n (binding stoichiometry): fitted n
[2] = test system: W373A site-directed mutant within the BIg–RbCBM74–BIg construct; assay: Isothermal titration calorimetry with W373A mutant
BIg–RbCBM74–BIg [3] = molecular target: T1, BIg–RbCBM74–BIg; assay: Native mass spectrometry titration, BIg–RbCBM74–BIg; conditions: native MS, 5 μM protein, 200 mM ammonium acetate
[4] = test system: F326A site-directed mutant within the BIg–RbCBM74–BIg construct; assay: Isothermal titration calorimetry with F326A mutant; conditions: ITC
[5] = test system: H289A site-directed mutant within the BIg–RbCBM74–BIg construct; assay: Isothermal titration calorimetry with H289A mutant; conditions: ITC
[6] = molecular target: previously studied CBM26 modules; conditions: read-out: dissociation constant (Kd) range; cited from earlier work

Chain of Sas6T (A0ABF7PL48 31-665 limits assumed): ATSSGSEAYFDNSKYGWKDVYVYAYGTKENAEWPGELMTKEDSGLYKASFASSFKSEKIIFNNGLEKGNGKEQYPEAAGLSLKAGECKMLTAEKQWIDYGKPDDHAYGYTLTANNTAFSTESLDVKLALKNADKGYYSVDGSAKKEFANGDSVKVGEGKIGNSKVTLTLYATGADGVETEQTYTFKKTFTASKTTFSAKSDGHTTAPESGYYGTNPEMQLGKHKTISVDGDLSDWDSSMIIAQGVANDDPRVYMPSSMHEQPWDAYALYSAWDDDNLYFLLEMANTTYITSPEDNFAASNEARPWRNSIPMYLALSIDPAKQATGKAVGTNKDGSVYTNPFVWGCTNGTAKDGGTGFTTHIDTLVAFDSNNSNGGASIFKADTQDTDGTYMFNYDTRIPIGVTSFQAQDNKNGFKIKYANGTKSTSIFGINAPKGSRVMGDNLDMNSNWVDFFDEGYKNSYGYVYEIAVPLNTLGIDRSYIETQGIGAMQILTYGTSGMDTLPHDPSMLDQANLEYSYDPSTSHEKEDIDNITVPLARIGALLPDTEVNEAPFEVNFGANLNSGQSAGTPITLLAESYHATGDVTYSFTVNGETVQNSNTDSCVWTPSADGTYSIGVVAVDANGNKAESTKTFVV
T1 sequence (A0ABF7PL48 134-665 limits assumed): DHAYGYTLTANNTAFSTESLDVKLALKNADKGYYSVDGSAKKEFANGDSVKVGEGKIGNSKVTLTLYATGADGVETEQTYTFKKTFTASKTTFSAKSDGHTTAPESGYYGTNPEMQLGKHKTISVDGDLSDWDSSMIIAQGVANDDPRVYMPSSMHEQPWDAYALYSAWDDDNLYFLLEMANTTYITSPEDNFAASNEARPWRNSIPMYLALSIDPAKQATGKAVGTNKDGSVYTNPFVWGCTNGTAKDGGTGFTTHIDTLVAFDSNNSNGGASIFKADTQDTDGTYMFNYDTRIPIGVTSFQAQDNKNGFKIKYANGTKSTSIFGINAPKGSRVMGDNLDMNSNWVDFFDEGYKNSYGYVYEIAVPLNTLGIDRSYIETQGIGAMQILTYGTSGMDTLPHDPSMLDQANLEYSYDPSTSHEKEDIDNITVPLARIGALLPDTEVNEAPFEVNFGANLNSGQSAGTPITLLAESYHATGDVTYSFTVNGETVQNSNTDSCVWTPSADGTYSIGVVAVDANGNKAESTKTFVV
Chain of RbCBM26 (A0ABF7PL48 31-129 limits assumed): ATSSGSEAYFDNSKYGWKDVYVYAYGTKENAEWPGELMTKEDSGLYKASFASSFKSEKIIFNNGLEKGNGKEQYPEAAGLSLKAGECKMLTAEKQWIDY

Q: Which “binding by ITC (in words)” value (BIg–RbCBM74–BIg [1]) does the source give for OC[C@H]1O[C@@H]2O[C@H]3[C@H](O)[C@@H](O)[C@@H](O[C@H]4[C@H](O)[C@@H](O)[C@@H](O[C@H]5[C@H](O)[C@@H](O)[C@@H](O[C@H]6[C@H](O)[C@@H](O)[C@@H](O[C@H]7[C@H](O)[C@@H](O)[C@@H](O[C@H]1[C@H](O)[C@H]2O)O[C@@H]7CO)O[C@@H]6CO)O[C@@H]5CO)O[C@@H]4CO)O[C@@H]3CO [ACX, α-cyclodextrin] here?
A: no detectable affinity

Q: What about the “binding by ITC (in words)” value (RbCBM26) of the same molecule?
A: binds

Q: What about the “n (binding stoichiometry)” value (RbCBM26) of the same molecule?
A: 0.8 ± 0.13

Q: What about the “n (binding stoichiometry)” value (Sas6T) of the same molecule?
A: 1.0 ± 0.4

Q: What does the source list for OC[C@H]1O[C@H](O[C@H]2[C@H](O)[C@@H](O)[C@@H](O[C@H]3[C@H](O)[C@@H](O)[C@@H](O[C@H]4[C@H](O)[C@@H](O)[C@@H](O[C@H]5[C@H](O)[C@@H](O)[C@@H](O[C@H]6[C@H](O)[C@@H](O)[C@@H](O[C@H]7[C@H](O)[C@@H](O)[C@@H](O[C@H]8[C@H](O)[C@@H](O)C(O)O[C@@H]8CO)O[C@@H]7CO)O[C@@H]6CO)O[C@@H]5CO)O[C@@H]4CO)O[C@@H]3CO)O[C@@H]2CO)[C@H](O)[C@@H](O)[C@@H]1O (stereo partly shown) [G8, maltooctaose]?
A: Kd (RbCBM26): 285 ± 84 µM; Kd (Sas6T): 496 ± 260 µM; binding by ITC (in words) (Sas6T): in the hundreds of μM

Q: With OC[C@H]1O[C@H](O[C@H]2[C@H](O)[C@@H](O)[C@@H](O[C@H]3[C@H](O)[C@@H](O)[C@@H](O[C@H]4[C@H](O)[C@@H](O)[C@@H](O[C@H]5[C@H](O)[C@@H](O)[C@@H](O[C@H]6[C@H](O)[C@@H](O)[C@@H](O[C@H]7[C@H](O)[C@@H](O)[C@@H](O[C@H]8[C@H](O)[C@@H](O)[C@@H](O[C@H]9[C@H](O)[C@@H](O)[C@@H](O[C@H]%10[C@H](O)[C@@H](O)C(O)O[C@@H]%10CO)O[C@@H]9CO)O[C@@H]8CO)O[C@@H]7CO)O[C@@H]6CO)O[C@@H]5CO)O[C@@H]4CO)O[C@@H]3CO)O[C@@H]2CO)[C@H](O)[C@@H](O)[C@@H]1O (stereo partly shown) [G10, maltodecaose] as the molecule, how does the “binding by ITC (in words)” value [2] read?
A: lost binding

Q: What about the Kd (BIg–RbCBM74–BIg [3]) of the same molecule?
A: 2.16 ± 0.53 µM

Q: What about the “n (binding stoichiometry)” value (BIg–RbCBM74–BIg [1]; ITC, fitted n) of the same molecule?
A: 0.9 ± 0.20

Q: And the “decrease in affinity relative to BIg–RbCBM74–BIg” value [4]?
A: 10–20 fold

Q: And the “n (binding stoichiometry)” value (RbCBM26)?
A: 0.7 ± 0.21

Q: What about the “n (binding stoichiometry)” value (Sas6T) of the same molecule?
A: 0.8 ± 0.07

Q: And the “decrease in affinity relative to BIg–RbCBM74–BIg” value [5]?
A: 10–20 fold

Q: For OC[C@H]1O[C@H](O[C@H]2[C@H](O)[C@@H](O)[C@@H](O[C@H]3[C@H](O)[C@@H](O)[C@@H](O[C@H]4[C@H](O)[C@@H](O)[C@@H](O[C@H]5[C@H](O)[C@@H](O)[C@@H](O[C@H]6[C@H](O)[C@@H](O)[C@@H](O[C@H]7[C@H](O)[C@@H](O)[C@@H](O[C@H]8[C@H](O)[C@@H](O)[C@@H](O[C@H]9[C@H](O)[C@@H](O)[C@@H](O[C@H]%10[C@H](O)[C@@H](O)[C@@H](O[C@H]%11[C@H](O)[C@@H](O)[C@@H](O[C@H]%12[C@H](O)[C@@H](O)[C@@H](O[C@H]%13[C@H](O)[C@@H](O)[C@@H](O[C@H]%14[C@H](O)[C@@H](O)C(O)O[C@@H]%14CO)O[C@@H]%13CO)O[C@@H]%12CO)O[C@@H]%11CO)O[C@@H]%10CO)O[C@@H]9CO)O[C@@H]8CO)O[C@@H]7CO)O[C@@H]6CO)O[C@@H]5CO)O[C@@H]4CO)O[C@@H]3CO)O[C@@H]2CO)[C@H](O)[C@@H](O)[C@@H]1O (stereo partly shown) [G14, maltotetradecaose], which Kd (BIg–RbCBM74–BIg [3]) is on record?
A: 1.29 ± 0.1 µM

Q: For OC[C@H]1O[C@H](OC[C@H]2O[C@H](O[C@H]3[C@H](O)[C@@H](O)[C@@H](O[C@H]4[C@H](O)[C@@H](O)[C@@H](OC[C@H]5O[C@H](O[C@H]6[C@H](O)[C@@H](O)[C@@H](O[C@H]7[C@H](O)[C@@H](O)C(O)O[C@@H]7CO)O[C@@H]6CO)[C@H](O)[C@@H](O)[C@@H]5O)O[C@@H]4CO)O[C@@H]3CO)[C@H](O)[C@@H](O)[C@@H]2O)[C@H](O)[C@@H](O)[C@@H]1O (stereo partly drawn) [glucosyl-α1,6-maltotriosyl-α 1,6-maltotriose], which “binding by ITC (in words)” value (BIg–RbCBM74–BIg [1]) is on record?
A: None of the constructs bound

Q: And the “binding by ITC (in words)” value (RbCBM26)?
A: None of the constructs bound

Q: And the “binding by ITC (in words)” value (Sas6T)?
A: None of the constructs bound

Q: With OC[C@H]1O[C@@H]2O[C@H]3[C@H](O)[C@@H](O)[C@@H](O[C@H]4[C@H](O)[C@@H](O)[C@@H](O[C@H]5[C@H](O)[C@@H](O)[C@@H](O[C@H]6[C@H](O)[C@@H](O)[C@@H](O[C@H]7[C@H](O)[C@@H](O)[C@@H](O[C@H]8[C@H](O)[C@@H](O)[C@@H](O[C@H]1[C@H](O)[C@H]2O)O[C@@H]8CO)O[C@@H]7CO)O[C@@H]6CO)O[C@@H]5CO)O[C@@H]4CO)O[C@@H]3CO [β-cyclodextrin] as the molecule, how does the Kd [6] read?
A: 350 to 600 µM

Q: What does the source list for maltoheptaose [G7]?
A: binding by ITC (in words) (BIg–RbCBM74–BIg [1]): no detectable affinity; binding by ITC (in words) (RbCBM26): binds; binding by ITC (in words) (Sas6T): in the hundreds of μM
